Source: patent US20240132450A1, “MODULATORS OF G PROTEIN-COUPLED RECEPTOR 88” (ACADIA Pharmaceuticals Inc., priority 2020, published 2024)
pEC50: −log10 of the molar value.

Biological target: hGPR88 receptor (Homo sapiens, UniProt Q9GZN0)
Assay: hGPR88-HEK cAMP accumulation assay
Conditions: GRP88 agonist activity (EC50), HEK-293 cells expressing human recombinant GPR88, forskolin 200 nM, High/Medium/Low bands

Chain of hGPR88 receptor (Q9GZN0 whole entry): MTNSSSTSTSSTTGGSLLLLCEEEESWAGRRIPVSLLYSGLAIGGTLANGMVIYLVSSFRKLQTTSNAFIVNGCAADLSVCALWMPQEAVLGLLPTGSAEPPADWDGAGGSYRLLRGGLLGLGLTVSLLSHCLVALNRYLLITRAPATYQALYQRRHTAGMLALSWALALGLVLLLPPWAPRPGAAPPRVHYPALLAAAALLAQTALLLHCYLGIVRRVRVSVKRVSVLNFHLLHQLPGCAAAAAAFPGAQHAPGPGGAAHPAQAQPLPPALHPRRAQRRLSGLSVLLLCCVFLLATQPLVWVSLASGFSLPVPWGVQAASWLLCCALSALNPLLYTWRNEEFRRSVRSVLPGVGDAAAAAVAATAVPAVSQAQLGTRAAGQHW

pEC50 | Compound
< 5.30 | COc1ccc(-c2ccc(NC(=O)C(C)(C)Oc3ccc(F)cc3)cc2)cc1 [Example 11, 2-(4-fluorophenoxy)-N-(4′-methoxy-[1,1′-biphenyl]-4-yl)-2-methylpropanamide]
< 5.30 | CC(C)(Oc1ccc(F)cc1)C(=O)Nc1ccc(-c2ccc(OC(F)(F)F)cc2)cc1 [Example 12, 2-(4-fluorophenoxy)-2-methyl-N-(4′-(trifluoromethoxy)-[1,1′-biphenyl]-4-yl)propanamide]
5.30 to 6.00 | CCN(C(=O)C(C)(C)Oc1ccc(F)cc1)c1ccc(-c2ccc(COC)cc2)cc1 [Example 14, N-ethyl-2-(4-fluorophenoxy)-N-(4′-(methoxymethyl)-[1,1′-biphenyl]-4-yl)-2-methylpropanamide]
5.30 to 6.00 | COCCN(C(=O)C(C)(C)Oc1ccc(F)cc1)c1ccc(-c2ccc(COC)cc2)cc1 [Example 15, 2-(4-fluorophenoxy)-N-(2-methoxyethyl)-N-(4′-(methoxymethyl)-[1,1′-biphenyl]-4-yl)-2-methylpropanamide]
< 5.30 | CN(C)C(=O)c1ccc(-c2ccc(NC(=O)C(C)(C)Oc3ccc(F)cc3)cc2)cc1 [Example 16, 4′-(2-(4-fluorophenoxy)-2-methylpropanamido)-N,N-dimethyl-[1,1′-biphenyl]-4-carboxamide]
< 5.30 | CCCN(C(=O)C(C)(C)Oc1ccc(F)cc1)c1ccc(-c2ccc(C)cc2)cc1 [Example 20, 2-(4-fluorophenoxy)-2-methyl-N-(4′-methyl-[1,1′-biphenyl]-4-yl)-N-propylpropanamide]
< 5.30 | Cc1ccc(-c2ccc(N(CC(C)C)C(=O)C(C)(C)Oc3ccc(F)cc3)cc2)cc1 [Example 21, 2-(4-fluorophenoxy)-N-isobutyl-2-methyl-N-(4′-methyl-[1,1′-biphenyl]-4-yl)-2-methylpropanamide]
5.30 to 6.00 | CCCN(C(=O)C(C)(C)Oc1ccc(F)cc1)c1ccc(-c2ccc(COC)cc2)cc1 [Example 22, 2-(4-fluorophenoxy)-N-(4′-(methoxymethyl)-[1,1′-biphenyl]-4-yl)-2-methyl-N-propylpropanamide]
< 5.30 | COCc1ccc(-c2ccc(N(CC(C)C)C(=O)C(C)(C)Oc3ccc(F)cc3)cc2)cc1 [Example 23, 2-(4-fluorophenoxy)-N-isobutyl-N-(4′-(methoxymethyl)-[1,1′-biphenyl]-4-yl)-2-methylpropanamide]
< 5.30 | Cc1ncc(-c2ccc(NC(=O)C(C)(C)Oc3ccc(F)cc3)cc2)cn1 [Example 24, 2-(4-fluorophenoxy)-2-methyl-N-(4-(2-methylpyrimidin-5-yl)phenyl)propenamide]
5.30 to 6.00 | CC(C)(Oc1ccc(F)cc1)C(=O)Nc1ccc(-c2ccc(C(=O)N3CCOCC3)cc2)cc1 [Example 27, 2-(4-fluorophenoxy)-2-methyl-N-(4′-(morpholine-4-carbonyl)-[1,1′-biphenyl]-4-yl)propenamide]
> 6.00 | CCCCN(C(=O)C(C)(C)Oc1ccc(F)cc1)c1ccc(-c2ccc(COC)cc2)cc1 [Example 28, N-butyl-2-(4-fluorophenoxy)-N-(4′-(methoxymethyl)-[1,1′-biphenyl]-4-yl)-2-methylpropanamide]
5.30 to 6.00 | COCc1ccc(-c2ccc(N(CC3CC3)C(=O)C(C)(C)Oc3ccc(F)cc3)cc2)cc1 [Example 29, N-(cyclopropylmethyl)-2-(4-fluorophenoxy)-N-(4′-(methoxymethyl)-[1,1′-biphenyl]-4-yl)-2-methylpropanamide]
5.30 to 6.00 | CCOc1ncc(-c2ccc(NC(=O)C(C)(C)Oc3ccc(F)cc3)cc2)cn1 [Example 30, N-(4-(2-ethoxypyrimidin-5-yl)phenyl)-2-(4-fluorophenoxy)-2-methylpropanamide]
5.30 to 6.00 | COCc1ccc(-c2ccc(N(CCO)C(=O)C(C)(C)Oc3ccc(F)cc3)cc2)cc1 [Example 33, 2-(4-fluorophenoxy)-N-(2-hydroxyethyl)-N-(4′-(methoxymethyl)-[1,1′-biphenyl]-4-yl)-2-methylpropanamide]
< 5.30 | CC(C)(Oc1ccc(F)cc1)C(=O)Nc1ccc(-c2cnc(C(F)(F)F)nc2)cc1 [Example 38, 2-(4-fluorophenoxy)-2-methyl-/-(4-(2-(trifluoromethyl)pyrimidin-5-yl)phenyl)propenamide]
5.30 to 6.00 | COCc1ccc(-c2ccc(N(CC(C)(C)O)C(=O)C(C)(C)Oc3ccc(F)cc3)cc2)cc1 [Example 39, 2-(4-fluorophenoxy)-N-(2-hydroxy-2-methylpropyl)-N-(4′-(methoxymethyl)-[1,1′-biphenyl]-4-yl)-2-methylpropanamide]
5.30 to 6.00 | COCc1ccc(-c2ccc(NC(=O)C(C)(C)Oc3ccc(F)cc3)nc2)cc1 [Example 40, 2-(4-fluorophenoxy)-N-(5-(4-(methoxymethyl)phenyl)pyridin-2-yl)-2-methylpropanamide]
< 5.30 | CC(C)(Oc1ccc(F)cc1)C(=O)Nc1ccc(-c2ccc(OC3CC3)cc2)cc1 [Example 41, N-(4′-cyclopropoxy-[1,1′-biphenyl]-4-yl)-2-(4-fluorophenoxy)-2-methylpropanamide]
< 5.30 | CC(C)Cc1ccc(-c2ccc(NC(=O)C(C)(C)Oc3ccc(F)cc3)cc2)cc1 [Example 42, 2-(4-fluorophenoxy)-N-(4′-isobutyl-[1,1′-biphenyl]-4-yl)-2-methylpropanamide]

pEC50 | Compound
> 6.00 | CC(C)Oc1ccc(-c2ccc(NC(=O)C(C)(C)Oc3ccc(F)cc3)cc2)cc1 [Example 46, 2-(4-fluorophenoxy)-N-(4′-isopropoxy-[1,1′-biphenyl]-4-yl)-2-methylpropanamide]
5.30 to 6.00 | CC(c1ccc(-c2ccc(NC(=O)C(C)(C)Oc3ccc(F)cc3)cc2)cc1)N1CCOCC1 (stereo not drawn) [Example 47, 2-(4-fluorophenoxy)-2-methyl-N-(4′-(1-morpholinoethyl)-[1,1′-biphenyl]-4-yl)propanamide]
< 5.30 | CCOc1ccc(-c2ccc(NC(=O)C(C)(C)Oc3ccc(F)cc3)cc2)cc1 [Example 51, N-(4′-ethoxy-[1,1′-biphenyl]-4-yl)-2-(4-fluorophenoxy)-2-methylpropanamide]
< 5.30 | CC(C)(Oc1ccc(F)cc1)C(=O)Nc1ccc(-c2ccc(S(C)(=O)=O)cc2)cc1 [Example 52, 2-(4-fluorophenoxy)-2-methyl-N-(4′-(methylsulfonyl)-[1,1′-biphenyl]-4-yl)propenamide]
> 6.00 | COCc1ccc(-c2ccc(NC(=O)C(C)(C)Cc3ccc(F)cc3)cc2)cc1 [Example 55, 3-(4-fluorophenyl)-N-(4′-(methoxymethyl)-[1,1′-biphenyl]-4-yl)-2,2-dimethylpropanamide]
5.30 to 6.00 | COCc1ccc(-c2ccc(NC(=O)C(C)(C)Cc3ccccc3)cc2)cc1 [Example 56, N-(4′-(methoxymethyl)-[1,1′-biphenyl]-4-yl)-2,2-dimethyl-3-phenylpropanamide]
> 6.00 | CCc1ccc(OC(C)(C)C(=O)Nc2ccc(-c3ccc(COC)cc3)cc2)cc1 [Example 57, 2-(4-ethylphenoxy)-N-(4′-(methoxymethyl)-[1,1′-biphenyl]-4-yl)-2-methylpropanamide]
> 6.00 | COCc1ccc(-c2ccc(NC(=O)C(C)(C)Oc3cccc(C)c3)cc2)cc1 [Example 58, N-(4′-(methoxymethyl)-[1,1′-biphenyl]-4-yl)-2-methyl-2-(m-tolyloxy)propenamide]
> 6.00 | COCc1ccc(-c2ccc(NC(=O)C(C)(C)Oc3ccc(Br)cc3)cc2)cc1 [Example 59, 2-(4-bromophenoxy)-N-(4′-(methoxymethyl)-[1,1′-biphenyl]-4-yl)-2-methylpropanamide]
> 6.00 | COCc1ccc(-c2ccc(NC(=O)C(C)(C)Oc3ccc(C(C)C)cc3)cc2)cc1 [Example 60, 2-(4-isopropylphenoxy)-N-(4′-(methoxymethyl)-[1,1′-biphenyl]-4-yl)-2-methylpropanamide]
> 6.00 | COCc1ccc(-c2ccc(NC(=O)C(C)(C)Oc3cccc(F)c3)cc2)cc1 [Example 62, 2-(3-fluorophenoxy)-N-(4′-(methoxymethyl)-[1,1′-biphenyl]-4-yl)-2-methylpropanamide]
> 6.00 | COCc1ccc(-c2ccc(NC(=O)C(C)(C)Oc3ccc(F)cc3F)cc2)cc1 [Example 63, 2-(2,4-difluorophenoxy)-N-(4′-(methoxymethyl)-[1,1′-biphenyl]-4-yl)-2-methylpropanamide]
> 6.00 | COCc1ccc(-c2ccc(NC(=O)C(C)(C)Oc3ccccc3C)cc2)cc1 [Example 64, N-(4′-(methoxymethyl)-[1,1′-biphenyl]-4-yl)-2-methyl-2-(o-tolylox)propenamide]
> 6.00 | COCc1ccc(-c2ccc(NC(=O)C(C)(C)Oc3cccc(Cl)c3)cc2)cc1 [Example 65, 2-(3-chlorophenoxy)-N-(4′-(methoxymethyl)-[1,1′-biphenyl]-4-yl)-2-methylpropanamide]
> 6.00 | COCc1ccc(-c2ccc(NC(=O)C(C)(C)Oc3ccc(OC)cc3)cc2)cc1 [Example 66, N-(4′-(methoxymethyl)-[1,1′-biphenyl]-4-yl)-2-(4-methoxyphenoxy)-2-methylpropanamide]
> 6.00 | COCc1ccc(-c2ccc(NC(=O)C(C)(C)Oc3ccccc3Cl)cc2)cc1 [Example 67, 2-(2-chlorophenoxy)-N-(4′-(methoxymethyl)-[1,1′-biphenyl]-4-yl)-2-methylpropanamide]
< 5.30 | COCc1ccc(-c2ccc(NC(=O)C(C)(C)Oc3cccnn3)cc2)cc1 [Example 69, N-(4′-(methoxymethyl)-[1,1′-biphenyl]-4-yl)-2-methyl-2-(pyridazin-3-yloxy)propenamide]
< 5.30 | COCc1ccc(-c2ccc(NC(=O)C(C)(C)Oc3ccc(C(F)(F)F)cn3)cc2)cc1 [Example 71, N-(4′-(methoxymethyl)-[1,1′-biphenyl]-4-yl)-2-methyl-2-((5-(trifluoromethyl)pyridin-2-yl)oxy)propenamide]
5.30 to 6.00 | CN1CCN(Cc2ccc(-c3ccc(NC(=O)C(C)(C)Oc4ccc(F)cc4)cc3)cc2)CC1 [Example 72, 2-(4-fluorophenoxy)-2-methyl-N-(4′-((4-methylpiperazin-1-yl)methyl)-[1,1′-biphenyl]-4-yl)propanamide]
